# Where two headings read alike, the source gives them in different places.
# Test system: SARS-CoV-2 (USA-WA1/2020)
# Type: cell-based
# Details: Caco-2 cells, vs DMSO controls
smiles,measurement,setting,value
Cc1cccc(/C=N/Nc2cc(N3CCOCC3)nc(OCCc3ccccn3)n2)c1 [Apilimod],Percent Infection (Exp 1),apilimod 31.25 nM single agent,93.632%
same,Percent Infection (Exp 2),apilimod 31.25 nM single agent,74.342%
same,Percent Infection (Exp 1),apilimod 62.5 nM single agent,75.308%
same,Percent Infection (Exp 2),apilimod 62.5 nM single agent,53.914%
same,Percent Infection (Exp 1),apilimod 125 nM single agent,35.618%
same,Percent Infection (Exp 2),apilimod 125 nM single agent,37.259%
same,Percent Infection (Exp 1),apilimod 250 nM single agent,11.935%
same,Percent Infection (Exp 2),apilimod 250 nM single agent,29.685%
same,Percent Infection (Exp 1),apilimod 500 nM single agent,12.267%
same,Percent Infection (Exp 2),apilimod 500 nM single agent,18.730%
same,Percent Infection (Exp 1),apilimod 1000 nM single agent,4.524%
same,Percent Infection (Exp 2),apilimod 1000 nM single agent,2.968%
same,Percent Infection (Exp 1),apilimod 2000 nM single agent,0.591%
same,Percent Infection (Exp 2),apilimod 2000 nM single agent,0.297%
